Numbering of substitutions follows the chain as printed.
Columns and labels:
[1] = target: T1, purified wild type MGL (wt-MGLL 6H-11-313) (Homo sapiens, UniProt Q99685); assay: biochemical
T1 sequence (Q99685 1-303): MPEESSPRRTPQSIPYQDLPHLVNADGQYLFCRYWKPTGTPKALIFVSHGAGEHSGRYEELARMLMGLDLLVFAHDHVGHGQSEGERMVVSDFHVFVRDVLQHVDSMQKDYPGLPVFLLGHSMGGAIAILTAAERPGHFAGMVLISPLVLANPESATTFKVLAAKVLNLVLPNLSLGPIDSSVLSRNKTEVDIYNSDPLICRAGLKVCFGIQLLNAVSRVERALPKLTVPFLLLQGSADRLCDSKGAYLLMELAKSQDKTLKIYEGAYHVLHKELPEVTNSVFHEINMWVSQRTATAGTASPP

mutant MGL = target: T2, mutant MGL (Homo sapiens, UniProt Q99685, L169S/L176S); assay: MGL ThermoFluor assay - mutant
T2 sequence (Q99685 1-303 L169S/L176S): T1 sequence (Q99685 1-303) with L169S, L176S
Protocol: The ThermoFluor (TF) assay is a 384-well plate-based binding assay that measures thermal stability of proteins^1,2. […] TF dye used in all experiments was 1,8-ANS (Invitrogen: A-47). Final TF assay conditions used for MGL studies were 0.07 mg/ml of mutant MGL, 100 μM ANS, 200 mM NaCl, 0.001% Tween-20 in 50 mM PIPES (pH=7.0).
Screening compound plates contained 100% DMSO compound solutions at a single concentration. […] Columns 12 and 24 were used as DMSO reference and contained no compound. […] Following compound dispension, protein and dye solutions were added to achieve the final assay volume of 3 μL.
Bar-coded assay plates were robotically loaded onto a thermostatically controlled PCR-type thermal block and then heated from 40 to 90° C. degrees at a ramp-rate of 1° C./min for all experiments. Fluorescence was measured by continuous illumination with UV light (Hamamatsu LC6), supplied via fiber optics and filtered through a band-pass filter (380-400 nm; >60D cutoff). Fluorescence emission of the entire 384-well plate was detected by measuring light intensity using a CCD camera (Sensys, Roper Scientific) filtered to detect 500±25 nm, resulting in simultaneous and independent readings of all 384 wells. A single image with 20-sec exposure time was collected at each temperature, and the sum of the pixel intensity in a given area of the assay plate was recorded vs temperature and fit to standard equations to yield the Tm^1. • 1.
For some experiments, quantitative NMR spectroscopy (qNMR) was used to measure concentration of the initial 100% DMSO compound solutions and, using the same fitting method, qKd values were determined

MGL = target: T3, MGL (Rattus norvegicus, UniProt Q8R431); assay: 2-AG accumulation assay in rat brain homogenate; format: biochemical; settings: compound 1 μM, percent vehicle = 2-AG accumulation with compound / in vehicle x 100, read-out: Rat Brain 2AG % VehCntrl (%) @1 μM
T3 construct: one g rat brain was homogenized using a Polytron homogenizer; from tissue; host or cells: rat brain homogenate
T3 sequence (Q8R431 1-303): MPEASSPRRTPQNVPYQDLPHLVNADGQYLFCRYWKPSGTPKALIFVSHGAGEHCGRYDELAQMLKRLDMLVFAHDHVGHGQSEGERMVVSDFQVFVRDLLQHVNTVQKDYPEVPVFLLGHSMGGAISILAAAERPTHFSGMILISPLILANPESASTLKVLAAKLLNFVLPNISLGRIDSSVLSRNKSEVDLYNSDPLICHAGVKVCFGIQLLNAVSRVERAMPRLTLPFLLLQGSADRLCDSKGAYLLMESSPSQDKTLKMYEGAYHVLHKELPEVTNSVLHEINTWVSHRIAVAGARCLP

rat = assay: CFA-induced paw radiant heat hypersensitivity; format: in vivo; settings: 30 mg/kg p.o., HPβCD, last time point 300 min, group mean values
Protocol: Each rat was placed in a test chamber on a warm glass surface and allowed to acclimate for approximately 10 min. A radiant thermal stimulus (beam of light) was then focused through the glass onto the plantar surface of each hind paw in turn. The thermal stimulus was automatically shut off by a photoelectric relay when the paw was moved or when the cut-off time was reached (20 sec for radiant heat at ˜5 amps). An initial (baseline) response latency to the thermal stimulus was recorded for each animal prior to the injection of complete Freund's adjuvant (CFA). 24 h following intraplantar CFA injection, the response latency of the animal to the thermal stimulus was then re-evaluated and compared to the animal's baseline response time. […] Post-compound treatment withdrawal latencies were assessed at fixed time intervals, typically 30, 60, 120, 180, and 300 min.
The percent reversal (% R) of hypersensitivity was calculated in one of two different ways: 1) using group mean values or 2) using individual animal values. […]
Method 1. For all compounds, the % R of hypersensitivity was calculated using the mean value for groups of animals at each time point according to the following formula: % reversal=[(group treatment response−group CFA response)/(group baseline response−group CFA response)]×100 Results are given for the maximum % reversal observed for each compound at any time point tested. […]

SMILES | IC50 [1] [µM] | Kd (mutant MGL) [µM] | further results
O=C(c1ccccc1)N1CCN(C2CN(C(=O)c3ccc4c(c3)c(F)cn4-c3ccc(F)cc3)C2)CC1 [Cpd 574, 3-Fluoro-1-(4-fluorophenyl)-5-({3-[4-(phenylcarbonyl)piperazin-1-yl]azetidin-1-yl}carbonyl)-1H-indole] | 0.049 | 0.048 | 
O=C(c1ccc[nH]1)N1CC(N2CCN(C(=O)c3cc4cc(C(F)(F)F)ccc4s3)CC2)C1 [Cpd 722, 1-[1-(1H-Pyrrol-2-ylcarbonyl)azetidin-3-yl]-4-{[5-(trifluoromethyl)-1-benzothiophen-2-yl]carbonyl}piperazine] |  |  | activity at 1 µM (MGL): 240%
C/C(=C\c1ccc(Cl)cc1)c1c(C)c(C(=O)N2CC(N3CCN(C(=O)c4nccs4)CC3)C2)nn1-c1ccc(Cl)cc1Cl [Cpd 1010] |  |  | inhibition in vivo at 30 mg/kg (rat; Rattus norvegicus, po, 5 h, read-out: Method 1: peak % reversal): 23.4%
O=C(c1ccc(-c2cccc(C(F)(F)F)c2)c(Cl)c1)N1CC(N2CCN(C(=O)c3cscn3)CC2)C1 [Cpd 1102] |  |  | Method 1: peak % reversal (rat): 38%
Cc1nc(C(=O)N2CCN(C3CN(C(=O)c4ccc(-c5cccc(C(F)(F)F)c5)cc4)C3)CC2)cs1 [Cpd 1217, 1-[(2-Methyl-1,3-thiazol-4-yl)carbonyl]-4-(1-{[3′-(trifluoromethyl)biphenyl-4-yl]carbonyl}azetidin-3-yl)piperazine] | 0.22 | 0.104 | 
Cc1cn(-c2ccc(F)c(F)c2)c2ccc(C(=O)N3CCN(C4CN(C(=O)c5ccc[nH]5)C4)CC3)cc12 [Cpd 1219, 1-(3,4-Difluorophenyl)-3-methyl-5-({4-[1-(1H-pyrrol-2-ylcarbonyl)azetidin-3-yl]piperazin-1-yl}carbonyl)-1H-indole] | 0.235 | 0.025 | 
O=C(c1ccc(-c2cccc(C(F)(F)F)c2)cc1)N1CC(N2CCN(C(=O)c3ccc(F)s3)CC2)C1 [Cpd 1336, 1-[(5-Fluorothiophen-2-yl)carbonyl]-4-(1-{[3′-(trifluoromethyl)biphenyl-4-yl]carbonyl}azetidin-3-yl)piperazine] | < 0.005 | 0.002 | 
O=C(c1ccc2c(ccn2-c2ccc(C(F)(F)F)cc2)c1)N1CCN(C2CN(C(=O)c3cscn3)C2)CC1 [Cpd 1337, 5-({4-[1-(1,3-Thiazol-4-ylcarbonyl)azetidin-3-yl]piperazin-1-yl}carbonyl)-1-[4-(trifluoromethyl)phenyl]-1H-indole] | < 0.005 | 0.04 | 
